Reference: patent US7846903B2, “Type II cubic liquid crystal composition” (National Institute of Advanced Industrial Science and …, priority 2004, dated 2010)
One block for each compound: values may come before it.

How the values were obtained:
[1] = Formation and structure of cubic liquid crystals by polarizing microscopy (penetration method) and SAXS; assay type: physicochemical; conditions: for liquid crystal phase formed: mixed with water, polarizing microscopy and/or SAXS
Excerpt: Whether or not the amphiphilic lipid/water system forms cubic liquid crystals and whether or not such composition is type I or II can be easily determined by the penetration method. A small amount (several mg) of amphiphilic lipids is placed on a glass slide for a microscope, and slight pressure is applied with a glass cover to form a thin layer of amphiphilic lipids (diameter: about 1 to 5 mm) with a thickness of about 10 μm in the gap between the glass slide and the glass cover. Upon addition of water or an aqueous medium from a side of the gap between the glass slide and the glass cover by capillary action, water gradually invades the amphiphilic lipid thin layer from the exterior edge, and a water content gradient is formed from the amphiphilic lipid thin layer/water interface toward the inside of the amphiphilic lipid thin layer. Polarizing microscopic observation thereof enables the determination of a phase type formed depending on the concentration of the amphiphilic lipid/water system. […] In FIG. 2, 4 regions are observed. The rightmost region in the photograph indicates a water region, and the other regions indicate hydrous amphiphilic lipid regions. In the photograph, the rightmost regions indicates the highest water content and the leftmost region indicates a region of amphiphilic lipids that has not yet been penetrated by water. […] Since cubic liquid crystals are stably formed at the interface of excess water and the amphiphilic lipid portion, such crystals are found to be of type II.
To this end, whether or not the liquid crystal structure has cubic lattices may be investigated by the small-angle x-ray scattering (SAXS) assay. In this process, a sample of an amphiphilic lipid/water system at a given concentration may be introduced into a quartz X-ray capillary tube, the capillary may be sealed with an oxygen burner, and the resultant may be subjected to the SAXS assay.
The cubic liquid crystal composition of the present invention is not particularly limited. […] Thus, spaces and lattice constants can be easily determined. The peak values of small angle X-ray scattering or the cubic lattice size of cubic liquid crystals in the presence of an excess aqueous solvent are at constant levels regardless of the lipid concentration. The coexistence state of cubic liquid crystals and an excess aqueous medium can be confirmed by the SAXS assay. Thus, whether or not the cubic liquid crystals are of type II can be easily determined.
In equations, nL and nW are actually measurable, and ac can be measured by the SAXS experiment. Thus, the dhc value can be determined based on equations (ii) and (iii). […] Based on such comparison, whether or not the cubic liquid crystal structure is of a bicontinuous type can be determined.
Mono-O-(3,7,11,15-tetramethylhexadecyl)pentaerythritol (hereafter referred to as “mono-O-(phytanyl)pentaerythritol,” formula (5) above) and pure water were introduced into a mixing device, and incubation was carried out while performing 100 or more times of mixing operations at room temperature (23° C.) over the period of 48 hours. Thus, a homogeneously mixed sample of mono-O-(phytanyl)pentaerythritol/water system was obtained. This sample of mono-O-(phytanyl)pentaerythritol/water system appeared to be a transparent gel composition.
Subsequently, the thus obtained sample of mono-O-(phytanyl)pentaerythritol/water system (the concentration of the amphiphilic compound: 74.6% by mass) was observed by polarizing microscopy. In entire region of the lipid portions, optically isotropic textures peculiar to the cubic liquid crystals were observed (FIG. 3). In FIG. 3, the right region indicates water and the left region indicates the sample of mono-O-(phytanyl)pentaerythritol/water system. […] Such observation indicates the formation of cubic liquid crystals.
Subsequently, the sample of mono-O-(phytanyl)pentaerythritol/water system was confirmed to be a cubic liquid crystal by small-angle x-ray scattering (SAXS). […]

[2] = Krafft temperature (TK) by DSC of amphiphilic compound/water system; assay type: physicochemical; conditions: for Krafft temperature (° C.): amphiphilic compound alone; for TK (Krafft temperature): compound/water system
Procedure: Liquid crystals such as cubic liquid crystals formed by amphiphilic lipids are formed only at the Krafft temperature (TK), as determined depending on types and concentrations of amphiphilic lipids, or higher. Furthermore, liquid crystals generally undergo a phase transition upon changes in the concentration of the amphiphilic lipid or temperature. Accordingly, the maximal temperature (Tmax) at which a given liquid crystal structure can be stably present is also determined depending on lipid type and concentration of amphiphilic lipid. Thus, a liquid crystal structure formed by a given type of amphiphilic lipid is stably formed in the temperature range between TK and Tmax. The correlation between TK-Tmax and the concentration of the amphiphilic lipid is generally indicated as a “concentration-temperature dependent phase diagram” of the amphiphilic lipid/water system. The Krafft temperature of the amphiphilic lipid can be determined by a method known in the art, such as a method involving the preparation of such a phase diagram (e.g., Laughlin, R. G., “The Aqueous Phase Behavior of Surfactants,” 1994, Academic Press London, pp. 106-117). The Krafft temperature of a mixture of two or more amphiphilic lipids can be determined by the same method.
In the cubic liquid crystal composition of the present invention, stable bicontinuous type II cubic liquid crystals are formed at low temperatures, such as lower than 6° C. In the liquid crystal composition of the present invention, stable bicontinuous type II cubic liquid crystals are typically formed between −10° C. (or at the freezing temperature of the aqueous medium used or higher) and 80° C., and preferably between 0° C. and 50° C. The Krafft temperature of the amphiphilic lipid can be easily determined by, for example, DSC assay of an aqueous solution containing 1% to 85% by mass of amphiphilic lipid or by observing the melting behavior of the amphiphilic lipid under a (polarizing) microscope. More precisely, such temperature may be determined in accordance with a conventional technique involving the preparation of a phase diagram (e.g., Laughlin, R. G., “The Aqueous Phase Behavior of Surfactants,” 1994, Academic Press, London, pp. 106-117).
The Krafft temperatures of these amphiphilic compounds and mixtures thereof determined by the analyses described below are shown in Table 2-1 and Table 2-2.
Subsequently, the sample of mono-O-(phytanyl)pentaerythritol/water system was subjected to differential scanning calorimetry (DSC) in a temperature range between −45° C. and 70° C. DSC analysis employed the Seiko SSC/560U differential scanning calorimeter (Seiko Instruments Inc.). The sample of mono-O-(phytanyl)pentaerythritol/water system (72.4% by mass) prepared by the above method was sealed in a DSC cell, and the sample was incubated while cooling at −45° C. for 3 hours to thoroughly form a hydrated solid of mono-O-(phytanyl)pentaerythritol (hereafter abbreviated as “hydrated solid”). Subsequently, this hydrated solid was heated at a rate of temperature increase of 0.5° C./minute and a melting behavior of the hydrated solid was inspected by DSC analysis. As a result, an endothermic peak resulting from melting of the hydrated solid that begins at around −40° C. and ends at around −27° C. and an endothermic peak resulting from ice melting observed between −10° C. and 1° C. were observed, as shown in FIG. 4. In FIG. 4, the left peak is the endothermic peak resulting from melting of the hydrated solid and the right peak is the endothermic peak resulting from ice melting. Although analysis was conducted up to 70° C., other thermal transition was not observed. Substantially the same results were obtained at other concentrations. Thus, the TK of mono-O-(phytanyl)pentaerythritol was concluded to be 0° C. or lower.

[3] = lipid alone, total amphiphilic compound content 60% by mass (excess water)

liquid crystal phase formed [1]: type II hexagonal liquid crystals
Structure (SMILES): CC(C)CCCC(C)CCCC(C)CCCC(C)CCOCC(O)CO (stereo not drawn) [1-O-(3,7,11-15-tetramethylhexadecyl)glycerol, reference compound]

Krafft temperature (° C.) [2]: 0 °C or lower
Structure (SMILES): CC(C)CCCC(C)CCCC(C)CCOCC(O)C(O)CO (stereo not drawn) [formula (2), 1-O-(3,7,11-trimethyldodecyl)erythritol]

Krafft temperature (° C.) [2]: 0 °C or lower
TK (Krafft temperature) [2]: ≤ 0 °C
lattice constant ([1]; Ia3d, 53.7% by mass, 20° C.): 17.3 nm
lattice constant ([1]; Ia3d, 53.7% by mass, 35° C.): 17.2 nm
lattice constant ([1]; Ia3d, 53.7% by mass, 40° C.): 17.1 nm
Structure (SMILES): CC(C)CCCC(C)CCCC(C)CCCCOCC(O)C(O)CO (stereo not drawn) [formula (3), 1-O-(5,9,13-trimethyltetradecyl)erythritol]
Temperature at which formation of cubic liquid crystals was observed (° C.) ([1]; Table 6, 53.7% by mass, Ia3d + Pn3m): 40 (Ia3d + Pn3m cubic liquid crystals) ° C.

Krafft temperature (° C.) [2]: 0 °C or lower
TK (Krafft temperature) [2]: ≤ 0 °C
lattice constant ([1]; Pn3m, 52.3% by mass, 1° C.): 11.4 nm
lattice constant ([1]; Pn3m, 52.3% by mass, 25° C.): 11.3 nm
lattice constant ([1]; Pn3m, 52.3% by mass, 45° C.): 10.1 nm
Structure (SMILES): CC(C)CCCC(C)CCCC(C)CCCC(C)CC(=O)OCC(O)C(O)CO (stereo not drawn) [formula (4), 1-O-(3,7,11,15-tetramethylhexadecanoyl)erythritol]

Krafft temperature (° C.) [2]: 0 °C or lower
TK (Krafft temperature) [2]: ≤ 0 °C
maximal temperature at which the cubic liquid crystal structure is formed [1]: 40 °C
lattice constant ([1]; 56.7% by mass, Pn3m cubic liquid crystals, 1° C.): 8.2 nm
lattice constant ([1]; 74.6% by mass, Ia3d cubic liquid crystals, 1° C.): 12.3 nm
dhc value of bilayer membrane of the cubic liquid crystal structure ([1]; calculated based on SAXS results): 1.17±0.1 nm
diameter of the water channel of the cubic liquid crystals [1, 3]: 2.5 nm
lattice constant of the cubic liquid crystals [1, 3]: 7.06 nm
Structure (SMILES): CC(C)CCCC(C)CCCC(C)CCCC(C)CCOCC(CO)(CO)CO (stereo not drawn) [formula (5), mono-O-(3,7,11,15-tetramethylhexadecyl)pentaerythritol]
Temperature at which formation of cubic liquid crystals was observed (° C.) ([1]; 74.6% by mass, two-phase system of Ia3d and Pn3m cubic liquid crystals): 25 (Two-phase system of Ia3d and Pn3m cubic ° C.

Krafft temperature (° C.) [2]: 0 °C or lower
TK (Krafft temperature) [2]: ≤ 0 °C
lattice constant ([1]; 58.9% by mass, 25° C.): 10.6 nm
lattice constant ([1]; 58.9% by mass, 55° C.): 8.3 nm
Structure (SMILES): CC(C)CCCC(C)CCCC(C)CCCC(C)CC(=O)OCC(CO)(CO)CO (stereo not drawn) [formula (6), mono-O-(3,7,11,15-tetramethylhexadecanoyl)pentaerythritol]
Temperature at which formation of cubic liquid crystals was observed (° C.) ([1]; Table 4, 56.0% by mass, two-phase system of Pn3m cubic and lamellar liquid crystals): 1 (Two-phase system of Pn3m cubic liquid ° C.

Krafft temperature (° C.) [2]: 0 °C or lower
TK (Krafft temperature) [2]: ≤ 0 °C
Structure (SMILES): CC(C)CCCC(C)CCCC(C)CCCC(C)CCCC(=O)OCC(O)C(O)CO (stereo not drawn) [formula (7), 1-O-(5,9,13,17-tetramethyloctadecanoyl)erythritol]

Krafft temperature (° C.) [2]: 0 °C or lower
TK (Krafft temperature) [2]: ≤ 0 °C
Structure (SMILES): CC(C)CCCC(C)CCCC(C)CCCC(C)CCCCOCC(CO)(CO)CO (stereo not drawn) [formula (8), mono-O-(5,9,13,17-tetramethyloctadecyl)pentaerythritol]
liquid crystal phase formed [1]: bicontinuous type II Pn3m cubic liquid crystals

Krafft temperature (° C.) [2]: 0 °C or lower
TK (Krafft temperature) [2]: ≤ 0 °C
Structure (SMILES): CC(C)CCCC(C)CCCC(C)CCCC(C)CCCC(=O)OCC(CO)(CO)CO (stereo not drawn) [formula (9)]
liquid crystal phase formed [1]: bicontinuous type II Pn3m cubic liquid crystals

Krafft temperature (° C.) [2]: 0 °C or lower
TK (Krafft temperature) [2]: ≤ 0 °C
lattice constant ([1]; 61.5% by mass, 1° C.): 10.1 nm
lattice constant ([1]; 61.5% by mass, 30° C.): 9.9 nm
lattice constant ([1]; 61.5% by mass, 40° C.): 9.5 nm
Structure (SMILES): CC(C)CCCC(C)CCCC(C)CCCC(C)CCCCOC1OC[C@@H](O)C(O)C1O (stereo partly drawn) [formula (10), 1-O-(5,9,13,17-tetramethyloctadecyl)-β-D-xylopyranoside]

Krafft temperature (° C.) [2]: 0 °C or lower
TK (Krafft temperature) ([2]; listed as α-XP): ≤ 0 °C
lattice constant ([1]; 84.2% by mass, 1° C.): 9.8 nm
lattice constant ([1]; 84.2% by mass, 25° C.): 9.7 nm
lattice constant ([1]; 84.2% by mass, 40° C.): 9.6 nm
Temperature at which formation of cubic liquid crystals was observed (° C.) ([1]; Table 12, 78.0% by mass, Ia3d): 1 (Ia3d cubic liquid crystals) ° C.
Structure (SMILES): CC(C)CCCC(C)CCCC(C)CCCC(C)CCOC1OC[C@@H](O)C(O)C1O (stereo partly drawn) [formula (11)]

Krafft temperature (° C.) [2]: 0 °C or lower
TK (Krafft temperature) [2]: ≤ 0 °C
Structure (SMILES): CC(C)CCCC(C)CCCC(C)CCCCOCC(CO)(CO)CO (stereo not drawn) [formula (12), mono-O-(5,9,13-trimethyltetradecyl)pentaerythritol]
